From ChEMBL document CHEMBL3885881, “DrugMatrix”

Species: Rattus norvegicus
Test: DrugMatrix - Regimen: Daily Repeat
Type: toxicity, organism-based, Sprague-Dawley
Design: regimen Daily Repeat, gender Male, age 6-8 weeks
Details: in vivo, iv, 20 mg/kg, dose level Low, vehicle 100 % SALINE; for ABSOLUTE BASOPHIL / ABSOLUTE EOSINOPHIL / ABSOLUTE LYMPHOCYTE / ABSOLUTE MONOCYTE / ABSOLUTE SEGMENTED NEUTROPHIL / BASOPHIL / EOSINOPHIL / ERYTHROCYTE COUNT / HEMATOCRIT / HEMOGLOBIN / LEUKOCYTE COUNT / LYMPHOCYTE / MEAN CORPUSCULAR HEMOGLOBIN / MEAN CORPUSCULAR HEMOGLOBIN CONCENTRATION / MEAN CORPUSCULAR VOLUME / MONOCYTE / NEUTROPHIL / NUCLEATED RED BLOOD CELLS / PLATELET COUNT: tissue Blood; for ALANINE AMINOTRANSFERASE / ALBUMIN / ALKALINE PHOSPHATASE / ASPARTATE AMINOTRANSFERASE / BLOOD UREA NITROGEN / CARBON DIOXIDE / CHLORIDE / CHOLESTEROL / CREATINE PHOSPHOKINASE / CREATININE / GLUCOSE / LACTATE DEHYDROGENASE / LIPASE / PHOSPHORUS / POTASSIUM / SODIUM / TOTAL BILIRUBIN / TOTAL PROTEIN / URIC ACID: tissue Plasma

## CN(N=O)C(=O)N[C@@H](C=O)[C@@H](O)[C@H](O)[C@H](O)CO [STREPTOZOCIN]
72 h, time 3 day
  ABSOLUTE BASOPHIL: 0 CELLS/uL
  ABSOLUTE EOSINOPHIL: 193 CELLS/uL
  ABSOLUTE LYMPHOCYTE: 10866.33 CELLS/uL
  ABSOLUTE MONOCYTE: 207.67 CELLS/uL
  ABSOLUTE SEGMENTED NEUTROPHIL: 899.67 CELLS/uL
  BASOPHIL: 0%
  EOSINOPHIL: 1.67%
  ERYTHROCYTE COUNT: 5.49 x10E6/uL
  HEMATOCRIT: 33.93%
  HEMOGLOBIN: 12.73 G/DL
  LEUKOCYTE COUNT: 12.17 x10E3/uL
  LYMPHOCYTE: 89.33%
  MEAN CORPUSCULAR HEMOGLOBIN: 23.23 pg
  MEAN CORPUSCULAR HEMOGLOBIN CONCENTRATION: 37.5 G/DL
  MEAN CORPUSCULAR VOLUME: 61.77 fL
  MONOCYTE: 1.67%
  NEUTROPHIL: 7.33%
  NUCLEATED RED BLOOD CELLS: 0.33 /100WBC
  PLATELET COUNT: 1240.67 x10E3/uL
  ALANINE AMINOTRANSFERASE: 42 u/L
  ALBUMIN: 4.1 G/DL
  ALKALINE PHOSPHATASE: 304.33 u/L
  ASPARTATE AMINOTRANSFERASE: 96.33 u/L
  BLOOD UREA NITROGEN: 16 mg/dL
  CARBON DIOXIDE: 25.33 mmol/L
  CHLORIDE: 104 MEQ/L
  CHOLESTEROL: 67 mg/dL
  CREATINE PHOSPHOKINASE: 595 u/L
  CREATININE: 0.25 mg/dL
  GLUCOSE: 148.67 mg/dL
  LACTATE DEHYDROGENASE: 798.67 u/L
  LIPASE: 9.33 u/L
  PHOSPHORUS: 11.97 mg/dL
  POTASSIUM: 6.35 MEQ/L
  SODIUM: 143.3 MEQ/L
  TOTAL BILIRUBIN: 0.17 mg/dL
  TOTAL PROTEIN: 5.4 G/DL
  URIC ACID: 1.33 mg/dL
120 h, time 5 day
  ABSOLUTE BASOPHIL: 0 CELLS/uL
  ABSOLUTE EOSINOPHIL: 64 CELLS/uL
  ABSOLUTE LYMPHOCYTE: 13587.67 CELLS/uL
  ABSOLUTE MONOCYTE: 429.67 CELLS/uL
  ABSOLUTE SEGMENTED NEUTROPHIL: 1452 CELLS/uL
  BASOPHIL: 0%
  EOSINOPHIL: 0.33%
  ERYTHROCYTE COUNT: 5.57 x10E6/uL
  HEMATOCRIT: 35.7%
  HEMOGLOBIN: 13.4 G/DL
  LEUKOCYTE COUNT: 15.53 x10E3/uL
  LYMPHOCYTE: 87.33%
  MEAN CORPUSCULAR HEMOGLOBIN: 24.07 pg
  MEAN CORPUSCULAR HEMOGLOBIN CONCENTRATION: 37.53 G/DL
  MEAN CORPUSCULAR VOLUME: 64.17 fL
  MONOCYTE: 2.67%
  NEUTROPHIL: 9.67%
  NUCLEATED RED BLOOD CELLS: 0 /100WBC
  PLATELET COUNT: 1260.33 x10E3/uL
  ALANINE AMINOTRANSFERASE: 54.33 u/L
  ALBUMIN: 4 G/DL
  ALKALINE PHOSPHATASE: 308.67 u/L
  ASPARTATE AMINOTRANSFERASE: 82.33 u/L
  BLOOD UREA NITROGEN: 21 mg/dL
  CARBON DIOXIDE: 26.33 mmol/L
  CHLORIDE: 103.67 MEQ/L
  CHOLESTEROL: 70.33 mg/dL
  CREATINE PHOSPHOKINASE: 420.67 u/L
  CREATININE: 0.21 mg/dL
  GLUCOSE: 181.67 mg/dL
  LACTATE DEHYDROGENASE: 60.33 u/L
  LIPASE: 7.67 u/L
  PHOSPHORUS: 12.23 mg/dL
  POTASSIUM: 6.34 MEQ/L
  SODIUM: 146.17 MEQ/L
  TOTAL BILIRUBIN: 0.17 mg/dL
  TOTAL PROTEIN: 6.03 G/DL
  URIC ACID: 1.87 mg/dL
